# Test system: 317291-083-R-J1-PDC complex spheroids, viability
# Assay: Anticancer human tumor 317291-083-R-J1-PDC patient-derived soft tissue sarcoma cell line growth inhibition [GQUAD]
# Conditions: for IC50: curve of first compound; for viability, T/C: stronger effect = lower value
# In short: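 Viability of tumor cells grown as complex spheroids with endothelial and stromal cells, exposed to drug combinations. Top concentration at or near clinical Cmax (else 10 microM), diluted in half-log increments.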
# [1] = second compound 0.0316 µM, first compound 0.0316 µM
# [2] = second compound 0.0316 µM, first compound 0.1 µM
# [3] = second compound 0.0316 µM, first compound 0.316 µM
# [4] = second compound 0.0316 µM, first compound 1 µM
# [5] = second compound 0.0316 µM, first compound 3.16 µM
# [6] = second compound 0.0316 µM, first compound 10 µM
# [7] = second compound 0.1 µM, first compound 0.0316 µM
# [8] = second compound 0.1 µM, first compound 0.1 µM
# [9] = second compound 0.1 µM, first compound 0.316 µM
# [10] = second compound 0.1 µM, first compound 1 µM
# [11] = second compound 0.1 µM, first compound 3.16 µM
# [12] = second compound 0.1 µM, first compound 10 µM
# [13] = second compound 0.316 µM, first compound 0.0316 µM
# [14] = second compound 0.316 µM, first compound 0.1 µM
# [15] = second compound 0.316 µM, first compound 0.316 µM
# [16] = second compound 0.316 µM, first compound 1 µM
# [17] = second compound 0.316 µM, first compound 3.16 µM
# [18] = second compound 0.316 µM, first compound 10 µM
# [19] = second compound 1 µM, first compound 0.0316 µM
# [20] = second compound 1 µM, first compound 0.1 µM
# [21] = second compound 1 µM, first compound 0.316 µM
# [22] = second compound 1 µM, first compound 1 µM
# [23] = second compound 1 µM, first compound 3.16 µM
# [24] = second compound 1 µM, first compound 10 µM
# [25] = second compound 3.16 µM, first compound 0.0316 µM
# [26] = second compound 3.16 µM, first compound 0.1 µM
# [27] = second compound 3.16 µM, first compound 0.316 µM
# [28] = second compound 3.16 µM, first compound 1 µM
# [29] = second compound 3.16 µM, first compound 3.16 µM
# [30] = second compound 3.16 µM, first compound 10 µM
# [31] = second compound 10 µM, first compound 0.0316 µM
# [32] = second compound 10 µM, first compound 0.1 µM
# [33] = second compound 10 µM, first compound 0.316 µM
# [34] = second compound 10 µM, first compound 1 µM
# [35] = second compound 10 µM, first compound 3.16 µM
# [36] = second compound 10 µM, first compound 10 µM
# 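Further: spheroids exposed to compounds for one week before readout.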
# 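Wherever viability, T/C is given: percent viability relative to DMSO vehicle wells taken as 100%.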
structure (smiles),measurement,setting,value
C#Cc1c(F)ccc2cc(O)cc(-c3ncc4c(N5CC6CCC(C5)N6)nc(OCC56CCCN5CC(F)C6)nc4c3F)c12 (stereo unspecified) + CN(C)c1ccc(Nc2c3ccc(NC(=O)CCN4CCCC4)cc3nc3cc(NC(=O)CCN4CCCC4)ccc23)cc1,IC50,second compound 0.0316 µM,5660 nM
same,IC50,second compound 0.1 µM,5140 nM
same,IC50,second compound 0.316 µM,1010 nM
same,IC50,second compound 1 µM,< 31.6 nM
same,IC50,second compound 3.16 µM,< 31.6 nM
same,IC50,second compound 10 µM,< 31.6 nM
same,"viability, T/C",[1],111%
same,"viability, T/C",[2],90.8%
same,"viability, T/C",[3],106%
same,"viability, T/C",[4],107%
same,"viability, T/C",[5],68%
same,"viability, T/C",[6],32.4%
same,"viability, T/C",[7],91.3%
same,"viability, T/C",[8],98.9%
same,"viability, T/C",[9],89.5%
same,"viability, T/C",[10],86.2%
same,"viability, T/C",[11],64.8%
same,"viability, T/C",[12],29.6%
same,"viability, T/C",[13],72.7%
same,"viability, T/C",[14],74.4%
same,"viability, T/C",[15],62.9%
same,"viability, T/C",[16],49.9%
same,"viability, T/C",[17],47.9%
same,"viability, T/C",[18],42.1%
same,"viability, T/C",[19],46.9%
same,"viability, T/C",[20],35%
same,"viability, T/C",[21],27.5%
same,"viability, T/C",[22],19.7%
same,"viability, T/C",[23],17.1%
same,"viability, T/C",[24],0.42%
same,"viability, T/C",[25],5.12%
same,"viability, T/C",[26],2.52%
same,"viability, T/C",[27],4.56%
same,"viability, T/C",[28],2.64%
same,"viability, T/C",[29],1.07%
same,"viability, T/C",[30],0.36%
same,"viability, T/C",[31],0.32%
same,"viability, T/C",[32],0.73%
same,"viability, T/C",[33],0.29%
same,"viability, T/C",[34],0.39%
same,"viability, T/C",[35],0.24%
same,"viability, T/C",[36],0.39%
CC(=O)O[C@H]1C(=O)[C@@]2(C)[C@H]([C@H](OC(=O)c3ccccc3)[C@]3(O)C[C@H](OC(=O)[C@H](O)[C@@H](NC(=O)c4ccccc4)c4ccccc4)C(C)=C1C3(C)C)[C@]1(OC(C)=O)CO[C@@H]1C[C@@H]2O + CN(C)c1ccc(Nc2c3ccc(NC(=O)CCN4CCCC4)cc3nc3cc(NC(=O)CCN4CCCC4)ccc23)cc1,IC50,second compound 0.0316 µM,< 31.6 nM
same,IC50,second compound 0.1 µM,< 31.6 nM
same,IC50,second compound 0.316 µM,< 31.6 nM
same,IC50,second compound 1 µM,< 31.6 nM
same,IC50,second compound 3.16 µM,< 31.6 nM
same,IC50,second compound 10 µM,< 31.6 nM
same,"viability, T/C",[1],46.5%
same,"viability, T/C",[2],17%
same,"viability, T/C",[3],12.4%
same,"viability, T/C",[4],14.7%
same,"viability, T/C",[5],11.4%
same,"viability, T/C",[6],12.4%
same,"viability, T/C",[7],39.5%
same,"viability, T/C",[8],13.6%
same,"viability, T/C",[9],12.5%
same,"viability, T/C",[10],12.2%
same,"viability, T/C",[11],10.4%
same,"viability, T/C",[12],10.6%
same,"viability, T/C",[13],25.9%
same,"viability, T/C",[14],14%
same,"viability, T/C",[15],9.98%
same,"viability, T/C",[16],8.69%
same,"viability, T/C",[17],10.2%
same,"viability, T/C",[18],9.42%
same,"viability, T/C",[19],21.7%
same,"viability, T/C",[20],6.55%
same,"viability, T/C",[21],5.24%
same,"viability, T/C",[22],7.99%
same,"viability, T/C",[23],6.09%
same,"viability, T/C",[24],6.28%
same,"viability, T/C",[25],9.14%
same,"viability, T/C",[26],0.56%
same,"viability, T/C",[27],0.37%
same,"viability, T/C",[28],0.6%
same,"viability, T/C",[29],1.62%
same,"viability, T/C",[30],0.92%
same,"viability, T/C",[31],0.91%
same,"viability, T/C",[32],0.27%
same,"viability, T/C",[33],0.18%
same,"viability, T/C",[34],0.29%
same,"viability, T/C",[35],0.25%
same,"viability, T/C",[36],0.23%
CCCS(=O)(=O)Nc1ccc(F)c(C(=O)c2c[nH]c3ncc(-c4ccc(Cl)cc4)cc23)c1F + CN(C)c1ccc(Nc2c3ccc(NC(=O)CCN4CCCC4)cc3nc3cc(NC(=O)CCN4CCCC4)ccc23)cc1,IC50,second compound 0.0316 µM,4160 nM
same,IC50,second compound 0.1 µM,3840 nM
same,IC50,second compound 0.316 µM,684 nM
same,IC50,second compound 1 µM,< 31.6 nM
same,IC50,second compound 3.16 µM,< 31.6 nM
same,IC50,second compound 10 µM,< 31.6 nM
same,"viability, T/C",[1],121%
same,"viability, T/C",[2],107%
same,"viability, T/C",[3],108%
same,"viability, T/C",[4],102%
same,"viability, T/C",[5],60.4%
same,"viability, T/C",[6],15.4%
same,"viability, T/C",[7],106%
same,"viability, T/C",[8],99.9%
same,"viability, T/C",[9],82.9%
same,"viability, T/C",[10],87.1%
same,"viability, T/C",[11],56.9%
same,"viability, T/C",[12],13.6%
same,"viability, T/C",[13],86.6%
same,"viability, T/C",[14],72.3%
same,"viability, T/C",[15],56.3%
same,"viability, T/C",[16],49.2%
same,"viability, T/C",[17],30.6%
same,"viability, T/C",[18],14.1%
same,"viability, T/C",[19],45.6%
same,"viability, T/C",[20],25.1%
same,"viability, T/C",[21],38.2%
same,"viability, T/C",[22],30.3%
same,"viability, T/C",[23],28.7%
same,"viability, T/C",[24],6.94%
same,"viability, T/C",[25],5.58%
same,"viability, T/C",[26],0.71%
same,"viability, T/C",[27],9.21%
same,"viability, T/C",[28],1.39%
same,"viability, T/C",[29],4.27%
same,"viability, T/C",[30],1.07%
same,"viability, T/C",[31],0.47%
same,"viability, T/C",[32],0.37%
same,"viability, T/C",[33],0.54%
same,"viability, T/C",[34],2.11%
same,"viability, T/C",[35],0.46%
same,"viability, T/C",[36],0.51%
